Measurements taken from ChEMBL document CHEMBL4706771, “Discovery of Orally Bioavailable Ligand Efficient Quinazolindiones as Potent and Selective Tankyrases Inhibitors” (ACS Med Chem Lett, 2021).
The source made the active and inactive calls. The rule behind the calls is not given here.

Experiments:
[1] = molecular target: T1, Poly [ADP-ribose] polymerase tankyrase-1 (Homo sapiens, UniProt O95271); experiment: Inhibition of human TNKS1 incubated for 1 to 2 hrs by fluorescence polarization assay
T1 sequence (O95271 whole entry): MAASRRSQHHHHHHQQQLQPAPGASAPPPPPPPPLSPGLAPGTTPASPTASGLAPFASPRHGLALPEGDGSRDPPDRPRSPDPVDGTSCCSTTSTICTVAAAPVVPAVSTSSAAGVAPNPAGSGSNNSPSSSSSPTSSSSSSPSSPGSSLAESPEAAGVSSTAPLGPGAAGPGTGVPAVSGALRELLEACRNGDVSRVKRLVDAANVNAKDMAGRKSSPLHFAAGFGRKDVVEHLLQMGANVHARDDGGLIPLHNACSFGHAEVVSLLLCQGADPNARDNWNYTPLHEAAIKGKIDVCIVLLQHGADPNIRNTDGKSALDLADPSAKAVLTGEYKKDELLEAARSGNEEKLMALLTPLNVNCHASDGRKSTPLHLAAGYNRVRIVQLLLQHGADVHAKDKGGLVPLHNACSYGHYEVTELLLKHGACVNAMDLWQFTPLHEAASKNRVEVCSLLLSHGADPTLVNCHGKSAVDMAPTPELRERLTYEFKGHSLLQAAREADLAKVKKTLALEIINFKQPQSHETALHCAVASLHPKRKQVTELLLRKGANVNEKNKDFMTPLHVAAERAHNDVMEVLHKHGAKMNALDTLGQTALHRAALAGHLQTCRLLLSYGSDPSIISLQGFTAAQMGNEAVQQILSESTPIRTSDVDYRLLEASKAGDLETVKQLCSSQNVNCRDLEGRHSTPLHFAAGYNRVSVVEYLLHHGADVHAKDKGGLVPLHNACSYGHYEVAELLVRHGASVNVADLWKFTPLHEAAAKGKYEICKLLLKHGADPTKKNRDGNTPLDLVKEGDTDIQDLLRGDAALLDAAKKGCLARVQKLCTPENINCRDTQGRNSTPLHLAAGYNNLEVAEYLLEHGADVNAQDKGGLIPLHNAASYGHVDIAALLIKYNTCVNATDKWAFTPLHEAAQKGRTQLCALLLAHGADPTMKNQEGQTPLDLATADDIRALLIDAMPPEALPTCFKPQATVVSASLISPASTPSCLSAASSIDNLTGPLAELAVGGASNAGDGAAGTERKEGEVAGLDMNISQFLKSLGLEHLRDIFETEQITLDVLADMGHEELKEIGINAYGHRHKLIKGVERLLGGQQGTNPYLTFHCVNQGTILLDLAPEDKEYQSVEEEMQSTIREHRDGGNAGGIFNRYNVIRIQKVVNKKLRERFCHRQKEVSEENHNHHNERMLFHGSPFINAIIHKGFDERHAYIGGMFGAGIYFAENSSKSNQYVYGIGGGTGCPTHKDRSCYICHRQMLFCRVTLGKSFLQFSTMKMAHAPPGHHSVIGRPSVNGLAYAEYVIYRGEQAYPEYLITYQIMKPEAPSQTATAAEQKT

[2] = Clearance in Sprague-Dawley rat at 8.6 mg/kg, po or 0.5 mg/kg, iv; assay type: ADME, organism-based; conditions: in vivo
[3] = Volume of distribution in Sprague-Dawley rat at 8.6 mg/kg, po or 0.5 mg/kg, iv; assay type: ADME, organism-based; conditions: in vivo
[4] = Half life in Sprague-Dawley rat at 8.6 mg/kg, po or 0.5 mg/kg, iv; assay type: ADME, organism-based; conditions: in vivo
[5] = Clearance in C57 mouse at 3 mg/kg, po or 1 mg/kg, iv; assay type: ADME, organism-based; conditions: in vivo
[6] = Half life in C57 mouse at 3 mg/kg, po or 1 mg/kg, iv; assay type: ADME, organism-based; conditions: in vivo
[7] = Dose normalised AUC in C57 mouse at 3 mg/kg, po; assay type: ADME, organism-based; conditions: in vivo
[8] = Oral bioavailability in C57 mouse at 3 mg/kg; assay type: ADME, organism-based; conditions: in vivo
[9] = Volume of distribution in Beagle dog at 2 mg/kg, po or 1 mg/kg, iv; assay type: ADME, organism-based, Canis lupus familiaris; conditions: in vivo
[10] = Dose normalised AUC in Beagle dog at 2 mg/kg, po; assay type: ADME, organism-based, Canis lupus familiaris; conditions: in vivo
[11] = Oral bioavailability in Beagle dog at 2 mg/kg; assay type: ADME, organism-based, Canis lupus familiaris; conditions: in vivo
[12] = molecular target: Cytochrome P450 2C9 (Homo sapiens, UniProt P11712); experiment: Inhibition of CYP2C9 (unknown origin); assay type: ADME
Cytochrome P450 2C9, sequence (P11712 whole entry): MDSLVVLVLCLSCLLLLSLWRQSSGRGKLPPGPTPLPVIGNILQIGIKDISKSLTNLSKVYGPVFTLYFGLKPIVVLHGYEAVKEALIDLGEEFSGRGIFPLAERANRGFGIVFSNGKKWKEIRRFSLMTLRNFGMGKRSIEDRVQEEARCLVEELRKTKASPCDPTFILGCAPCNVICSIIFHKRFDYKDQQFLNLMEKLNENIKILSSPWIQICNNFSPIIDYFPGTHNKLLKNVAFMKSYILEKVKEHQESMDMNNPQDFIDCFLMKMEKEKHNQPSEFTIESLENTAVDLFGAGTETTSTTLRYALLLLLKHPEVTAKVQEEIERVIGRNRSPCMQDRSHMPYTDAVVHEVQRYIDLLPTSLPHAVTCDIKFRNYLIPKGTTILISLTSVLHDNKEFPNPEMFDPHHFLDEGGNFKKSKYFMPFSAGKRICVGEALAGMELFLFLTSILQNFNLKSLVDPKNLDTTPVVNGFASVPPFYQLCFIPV

[13] = molecular target: Cytochrome P450 2D6 (Homo sapiens, UniProt P10635); experiment: Inhibition of CYP2D6 (unknown origin); assay type: ADME
Cytochrome P450 2D6, sequence (P10635 whole entry): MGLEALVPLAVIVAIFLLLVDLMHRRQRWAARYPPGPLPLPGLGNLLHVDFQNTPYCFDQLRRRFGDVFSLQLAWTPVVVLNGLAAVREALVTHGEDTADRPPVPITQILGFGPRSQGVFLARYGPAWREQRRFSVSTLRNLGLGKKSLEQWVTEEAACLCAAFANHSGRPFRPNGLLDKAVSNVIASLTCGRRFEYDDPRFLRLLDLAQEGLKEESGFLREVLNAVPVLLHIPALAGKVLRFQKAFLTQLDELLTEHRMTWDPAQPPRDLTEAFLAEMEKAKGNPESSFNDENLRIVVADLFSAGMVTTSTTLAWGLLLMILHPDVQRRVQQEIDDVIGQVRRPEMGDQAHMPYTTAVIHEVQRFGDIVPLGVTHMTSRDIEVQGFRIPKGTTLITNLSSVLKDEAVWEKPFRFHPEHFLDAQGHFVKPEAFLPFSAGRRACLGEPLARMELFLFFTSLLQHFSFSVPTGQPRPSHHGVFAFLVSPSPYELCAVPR

[14] = molecular target: Cytochrome P450 3A4 (Homo sapiens, UniProt P08684); experiment: Inhibition of CYP3A4 (unknown origin); assay type: ADME
Cytochrome P450 3A4, sequence (P08684 whole entry): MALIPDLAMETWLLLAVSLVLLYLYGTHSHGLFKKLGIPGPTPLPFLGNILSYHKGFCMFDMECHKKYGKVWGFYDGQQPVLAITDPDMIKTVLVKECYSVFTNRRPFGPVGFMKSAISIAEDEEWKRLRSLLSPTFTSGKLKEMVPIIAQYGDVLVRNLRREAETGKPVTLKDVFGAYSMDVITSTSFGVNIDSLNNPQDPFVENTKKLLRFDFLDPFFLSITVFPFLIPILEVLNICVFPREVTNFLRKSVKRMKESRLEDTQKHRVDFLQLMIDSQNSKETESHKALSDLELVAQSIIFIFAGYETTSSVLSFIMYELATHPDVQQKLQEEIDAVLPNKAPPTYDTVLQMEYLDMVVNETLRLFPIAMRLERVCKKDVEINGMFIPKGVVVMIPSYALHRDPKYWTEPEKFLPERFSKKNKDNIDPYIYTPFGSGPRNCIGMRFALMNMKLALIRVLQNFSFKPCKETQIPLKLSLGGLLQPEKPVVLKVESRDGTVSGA

[15] = Mutagenicity in Salmonella typhimurium TA1535 by ames test; assay type: toxicity; conditions: salmonella enterica subsp. enterica serovar typhimurium
[16] = Mutagenicity in Salmonella typhimurium TA1537 by ames test; assay type: toxicity; conditions: salmonella enterica subsp. enterica serovar typhimurium
[17] = Mutagenicity in Salmonella typhimurium TA100 by ames test; assay type: toxicity; conditions: salmonella enterica subsp. enterica serovar typhimurium
[18] = Mutagenicity in Escherichia coli WP2uvrA in presence of S9 fraction by ames test; assay type: toxicity, subcellular
[19] = system: NCI-H292; experiment: Antitumor activity against human NCI-H292 cells xenografted in BALB/c mouse assessed as reduction in tumor volume at 10 to 30 mg/kg, po administered for 14 days and measured on day 14; assay type: functional, organism-based; conditions: dose 10-30 mg/kg, time 14.0 day
[20] = system: NCI-H292; experiment: Antitumor activity against human NCI-H292 cells xenografted in BALB/c mouse assessed as reduction in tumor growth at 3 mg/kg, po administered for 14 days and measured on day 14; assay type: functional, organism-based; conditions: time 14.0 day
[21] = system: NCI-H292; experiment: Antitumor activity against human NCI-H292 cells xenografted in BALB/c mouse assessed as maximal potency administered orally for 14 days and measured on day 14; assay type: functional; conditions: time 14 day
[22] = Toxicity in Wistar Han rat assessed as reduction in body weight at 10 mg/kg, po administered for 7 days and measured on day 7; assay type: organism-based; parameters: scale not given: the % may be the effect or the level left; conditions: in vivo, 168 h, time 7 day
[23] = Toxicity in Wistar Han rat assessed as tolerability at >= 100 mg/kg, po administered for 7 days and measured on day 7; assay type: organism-based; conditions: in vivo, 168 h, time 7 day
[24] = Toxicity in Wistar Han rat assessed as decrease in activity at >= 100 mg/kg, po administered for 7 days and measured on day 7; assay type: organism-based; conditions: in vivo, 168 h, time 7 day
[25] = Toxicity in Wistar Han rat assessed as decrease in skin elasticity at >= 100 mg/kg, po administered for 7 days and measured on day 7; assay type: organism-based; conditions: in vivo, 168 h, time 7 day
[26] = Toxicity in Wistar Han rat assessed as closed eyes at >= 100 mg/kg, po administered for 7 days and measured on day 7; assay type: organism-based; conditions: in vivo, 168 h, time 7 day
[27] = Toxicity in Wistar Han rat assessed as abnormal mucoid fecal consistency at >= 100 mg/kg, po administered for 7 days and measured on day 7; assay type: organism-based; conditions: in vivo, 168 h, time 7 day
[28] = Toxicity in Wistar Han rat assessed as abnormal watery fecal consistency at >= 100 mg/kg, po administered for 7 days and measured on day 7; assay type: organism-based; conditions: in vivo, 168 h, time 7 day
[29] = Toxicity in BALB/c mouse xenografted with human NCI-H292 cells assessed as tolerability at 10 to 30 mg/kg, po for 14 days and measured on day 14; assay type: organism-based; conditions: in vivo, 336 h, dose 10-30 mg/kg, time 14 day

Cc1cccc2c1c(=O)n(C[C@H]1CC[C@H](C(=O)O)CC1)c(=O)n2Cc1cccc(C(F)(F)F)c1C#N
IC50 [1]: 0.004 µM
clearance [2]: 3.48 mL/min/kg
Vd [3]: 0.97 L/kg
half-life [4]: 3.89 h
clearance [5]: 1.44 mL/min/kg
half-life [6]: 10.9 h
AUC/dose [7]: 5831 ng·h/mL
bioavailability [8]: 37.1%
Vd [9]: 2.12 L/kg
AUC/dose [10]: 2937 ng·h/mL
bioavailability [11]: 52.2%
IC50 [12]: 84 µM
IC50 [13]: > 100 µM
IC50 [14]: > 100 µM
Activity [15]: Non-Toxic
Activity [16]: Non-Toxic
Activity [17]: Non-Toxic
Activity [18]: Non-Toxic
Activity [19]: Active
Activity [20]: Active
ECmax [21]: 10 mg/kg
Activity [22]: 8%
Activity [23]: Toxic
Activity [24]: Toxic
Activity [25]: Toxic
Activity [26]: Toxic
Activity [27]: Toxic
Activity [28]: Toxic
Activity [29]: Non-Toxic
